Patent publication US10017520B2, “Myc modulators and uses thereof” (Massachusetts Institute of Technology, priority 2014, dated 2018)
Converted amounts (≈) assume the structure as drawn. Like-named read-outs stand apart in the source and are kept apart here.

How the values were obtained:
Namalwa cells = assay: Cell viability, CELL TITER GLO assay (Promega), Namalwa cells; type: cell-based
Experimental: (§1) FIGS. 2A to 2E show exemplary results of cell viability assay of compound 1. […] Results were expressed as a mean+/−SEM (n=3). RLU: Relative Luminescence Units.
(§2) The effect of compound 1 on cell viability in several cancer cell lines were determined. The cancer cell lines employed in the assay included those corresponding to hematopoietic and solid tumors. Exemplary results are shown in FIGS. 2A to 2E, where viability was assessed by CELL TITER GLO assay (Promega). Compound 1 was also submitted in a blinded fashion to the National Cancer Institute's CTD cancer cell line profiling pipeline, which enabled sensitivity profiling in about 800 cancer cell lines with annotation of specific genomic lesions that impart on human cancers (FIGS. 3A to 3B). […] The effects of other compounds described herein on cell viability in several cancer cell lines were also determined, and exemplary results are shown in Table 2, where viability was assessed by CELL TITER GLO assay (Promega).

NCIH1975 cells = assay: Cell viability, CELL TITER GLO assay (Promega), NCIH1975 cells; type: cell-based; conditions: Homo sapiens, NCI-H1975
Experimental: as §1, §2

Eu-Myc Arf −/− cells = assay: Cell viability, CELL TITER GLO assay (Promega), Eu-Myc Arf −/− cells; type: cell-based
Experimental: as §2

c-Myc [1] = assay: c-Myc reporter gene assay (Qiagen) in HEK293T cells; type: cell-based; conditions: Homo sapiens, HEK-293T, 16 h, treatment 16 hours, Firefly/Renilla ratio
Experimental: Compound 1's activity against Myc was measured as a Firefly/Renilla ratio, using the Myc reporter assay (Qiagen) in HEK293T cells after treatment with compound 1 for 16 hours. Results are expressed as a mean+/−SD (n=3). SD: standard deviation.
Select compounds described herein that were SMM assay positives were evaluated in several versions of a c-Myc reporter gene assay, including a commercial assay from Qiagen. The compounds' activities against c-Myc were measured as a Firefly/Renilla ratio, using the Myc reporter assay (Qiagen) in HEK293T cells after treatment with the compounds for 16 hours.

[2] = Intrinsic clearance (liver microsomes, human), half-life; type: in vitro ADME
[3] = Aqueous solubility at 37° C.; type: physicochemical
cancer cell lines = assay: Cell viability in cancer cell lines (CELL TITER GLO; CTD cancer cell line profiling); type: cell-based
Experimental: as §1
FIGS. 3A to 3B show CTD^2 viability data profile of cancer cell lines treated with compound 1. FIG. 3A: dose response curves of 789 cell lines treated with compound 1 for 72 hours. FIG. 3B: relative percent composition of cell lineages and enrichment analysis after treatment with compound 1.
as §2

c-Myc [4] = assay: Affinity-based pull down of c-Myc from nuclear lysate with compound-loaded beads, Western blot; type: binding
Experimental: Compound 19 beads (Figure SA) and compound 55 beads (FIG. 5B) were used. Results are expressed as a mean+/−SEM (n=3). Compound 55 beads were formed by a method analogous to the method shown in FIG. 4, where beads were linked to the —NH2 moiety of compound 55 by forming a urea moiety.
In order to explore the mechanism of action of compound 1, preliminary target identification experiments involving affinity-based pull downs were carried out. […] The structure of compound 19 allowed for linking compound 1 to beads (AFFI-GEL 102, Bio-Rad) (FIG. 4).
The linkage site to the bead via the nitrogen atom of the benzimidazolyl moiety was the original site of attachment to the small-molecule microarray and represented the orientation in the original screen.

SMILES	IC50 (Namalwa cells) [µM]	IC50 (NCIH1975 cells) [µM]	IC50 (Eu-Myc Arf −/− cells) [µM]	IC50 (c-Myc [1]) [µM]	Half-life, intrinsic clearance (liver microsomes, human) [2] [min]	solubility ([3]; aqueous buffer, PBS, pH 7.4, 37° C., read-out: Solubility at 37° C., aqueous solubility (PBS, pH 7.4)) [µM]	solubility ([3]; fassgf or other biorelevant, simulated intestinal fluid, 37° C., read-out: Solubility at 37° C., aqueous solubility (simulated intestinal fluid)) [µM]	solubility ([3]; simulated gastric fluid, 37° C., read-out: Solubility at 37° C., aqueous solubility (simulated gastric fluid)) [µM]	effect on cell viability in 5 cancer cell lines (cancer cell lines; 3 days, NCIH1975, SNUC5, Namalwa, KLP1, Hela, CELL TITER GLO)	effect on cell viability in a variety of cancer cell lines (cancer cell lines; several cancer cell lines and CTD profiling of about 800 cancer cell lines, 72 hours)	c-Myc levels pulled down with free compound as soluble competitor (c-Myc [4]; beads linked via nitrogen atom of the benzimidazolyl moiety (compound 55 beads))	c-Myc pulled down with free compound as soluble competitor (c-Myc [4]; compound 19 beads, nuclear lysate, 5 μM soluble competitor)
COc1cccc2nc(Sc3ccc(/C=C4\SC(=O)N(C(C)C)C4=O)o3)[nH]c12 [Compound 30, (Z)-3-isopropyl-5-((5-((7-methoxy-1H-benzo[d]imidazol-2-yl)thio)furan-2-yl)methylene)thiazolidine-2,4-dione]	72	56.3	11.1	1.63	–	–	–	–	–	–	–	–
CC(C)N1C(=O)S/C(=C\c2ccc(Sc3nc4ccccc4o3)o2)C1=O [Compound 6, (Z)-5-((5-(benzo[d]oxazol-2-ylthio)furan-2-yl)methylene)-3-isopropylthiazolidine-2,4-dione]	37.2	> 50	> 50	9.39	–	–	–	–	–	–	–	–
O=C(CCCC[C@H]1SC[C@H]2NC(=O)N[C@H]21)NCCCN1C(=O)S/C(=C\c2ccc(Sc3nc4ccccc4[nH]3)o2)C1=O [Compound 27, N-(3-((Z)-5-((5-((1H-benzo[d]imidazol-2-yl)thio)furan-2-yl)methylene)-2,4-dioxothiazolidin-3-yl)propyl)-5-((3aR,4R,6aS)-2-oxohexahydro-1H-thieno[3,4-d]imidazol-4-yl)pentanamide]	12.2	> 50	26	2.28	–	–	–	–	–	–	–	–
CC(C)N1C(=O)N/C(=C\c2ccc(Sc3nc4ccccc4[nH]3)o2)C1=O [Compound 8, (Z)-5-((5-((1H-benzo[d]imidazol-2-yl)thio)furan-2-yl)methylene)-3-isopropylimidazolidine-2,4-dione]	> 50	> 50	11.8	0.83	–	–	–	–	–	–	–	–
COc1ccc2nc(Sc3ccc(/C=C4\SC(=O)N(C(C)C)C4=O)o3)[nH]c2c1 [Compound 5, (Z)-3-isopropyl-5-((5-((6-methoxy-1H-benzo[d]imidazol-2-yl)thio)furan-2-yl)methylene)thiazolidine-2,4-dione]	42.1	34.5	> 50	1.19	–	–	–	–	–	–	–	–
CC(C)N1C(=O)S/C(=C\c2ccc(Sc3nc4cc(Cl)c(Cl)cc4[nH]3)o2)C1=O [Compound 25, (Z)-5-((5-((5,6-dichloro-1H-benzo[d]imidazol-2-yl)thio)furan-2-yl)methylene)-3-isopropylthiazolidine-2,4-dione]	3.95	7.88	5.51	0.63	–	–	–	–	–	–	–	–
CC(C)N1C(=O)S/C(=C\c2ccc(Sc3nc4ccccc4[nH]3)o2)C1=O [Compound 1, (Z)-5-((5-((1H-benzo[d]imidazol-2-yl)thio)furan-2-yl)methylene)-3-isopropylthiazolidine-2,4-dione]	21.1	24.9	10.2	0.67	22	< 1	80.2 (≈ 30.9 µg/mL)	62.7 (≈ 24.2 µg/mL)	affected cell viability	demonstrated an effect in cell viability	decreased levels of c-Myc	less c-Myc pulled down
CC(C)N1C(=O)N/C(=C\c2ccc(Sc3nc4ccc(Cl)cc4[nH]3)o2)C1=O [Compound 22, (Z)-5-((5-((6-chloro-1H-benzo[d]imidazol-2-yl)thio)furan-2-yl)methylene)-3-isopropylimidazolidine-2,4-dione]	16.5	45.3	6.09	1.05	–	–	–	–	–	–	–	–
CC(C)N1C(=O)S/C(=C\c2ccc(Sc3nc4ccc(C(F)(F)F)cc4[nH]3)o2)C1=O [Compound 24, (Z)-3-isopropyl-5-((5-((6-(trifluoromethyl)-1H-benzo[d]imidazol-2-yl)thio)furan-2-yl)methylene)thiazolidine-2,4-dione]	7.94	12.5	11.2	0.64	–	–	–	–	–	–	–	–
O=C1NC(=O)/C(=C/c2ccc(Sc3nc4ccccc4[nH]3)o2)N1 [Compound 2, (Z)-5-((5-((1H-benzo[d]imidazol-2-yl)thio)furan-2-yl)methylene)imidazolidine-2,4-dione]	> 50	> 50	> 50	7.5	–	–	–	–	–	–	–	–
O=C(O)CN1C(=O)S/C(=C\c2ccc(Sc3nc4ccccc4[nH]3)o2)C1=O [Compound 26]	> 50	> 50	> 50	33.6	–	–	–	–	–	–	–	–
OCc1ccc(Sc2nc3ccccc3[nH]2)o1 [Compound 40, (5-((1H-benzo[d]imidazol-2-yl)thio)furan-2-yl)methanol]	> 50	> 50	14.1	> 40	–	–	–	–	–	–	–	–
CC(C)N1C(=O)S/C(=C\c2ccc(Sc3nc4cccnc4[nH]3)o2)C1=O [Compound 10, (Z)-5-((5-((3H-imidazo[4,5-b]pyridin-2-yl)thio)furan-2-yl)methylene)-3-isopropylthiazolidine-2,4-dione]	> 50	> 50	33.1	5.6	–	–	–	–	–	–	–	–
O=C1C/C(=C\c2ccc(Sc3nc4ccccc4[nH]3)o2)C(=O)N1 [Compound 9, (E)-3-((5-((1H-benzo[d]imidazol-2-yl)thio)furan-2-yl)methylene)pyrrolidine-2,5-dione]	> 50	> 50	> 50	9.02	–	–	–	–	–	–	–	–
Cc1cccc2nc(Sc3ccc(/C=C4\SC(=O)N(C(C)C)C4=O)o3)[nH]c12 [Compound 23, (Z)-3-isopropyl-5-((5-((7-methyl-1H-benzo[d]imidazol-2-yl)thio)furan-2-yl)methylene)thiazolidine-2,4-dione]	33.9	28.2	10.5	1.5	–	–	–	–	–	–	–	–
CC(C)N1C(=O)S/C(=C\c2ccc(Sc3nc4ccccc4s3)o2)C1=O [Compound 3, (Z)-5-((5-(benzo[d]thiazol-2-ylthio)furan-2-yl)methylene)-3-isopropylthiazolidine-2,4-dione]	31.1	> 50	> 50	5.72	–	–	–	–	–	–	–	–
CC(C)c1ccc2nc(Sc3ccc(/C=C4\SC(=O)N(C(C)C)C4=O)o3)[nH]c2c1 [Compound 29, (Z)-3-isopropyl-5-((5-((6-isopropyl-1H-benzo[d]imidazol-2-yl)thio)furan-2-yl)methylene)thiazolidine-2,4-dione]	15.3	19.9	13.1	0.64	–	–	–	–	–	–	–	–
CC(C)N1C(=O)S/C(=C\c2ccc(Sc3nc4cccc(Cl)c4[nH]3)o2)C1=O [Compound 28, (Z)-5-(5-(((7-chloro-H-benzo[d]imidazol-2-yl)thio)furan-2-yl)methylene)-3-isopropylthiazolidine-2,4-dione]	9.41	15.6	5.36	0.98	–	–	–	–	–	–	–	–
CC(C)N1C(=O)S/C(=C\c2ccc(Sc3nc4ccc(Cl)cc4[nH]3)o2)C1=O [Compound 4, (Z)-5-((5-((6-chloro-1H-benzo[d]imidazol-2-yl)thio)furan-2-yl)methylene)-3-isopropylthiazolidine-2,4-dione]	12.4	17.3	11	0.79	–	–	–	–	–	–	–	–
